Measured values published in BindingDB's records for doi:10.7270/Q29P301W (University of Pittsburgh, 2006).

molecular target: T1, Dual specificity protein phosphatase 6 (Rattus norvegicus, UniProt Q64346); assay: DUSP6 inhibitors, confirmatory specificity test, biochemical, cell-free, concentration-response (AID 452)
T1 sequence (Q64346 whole entry): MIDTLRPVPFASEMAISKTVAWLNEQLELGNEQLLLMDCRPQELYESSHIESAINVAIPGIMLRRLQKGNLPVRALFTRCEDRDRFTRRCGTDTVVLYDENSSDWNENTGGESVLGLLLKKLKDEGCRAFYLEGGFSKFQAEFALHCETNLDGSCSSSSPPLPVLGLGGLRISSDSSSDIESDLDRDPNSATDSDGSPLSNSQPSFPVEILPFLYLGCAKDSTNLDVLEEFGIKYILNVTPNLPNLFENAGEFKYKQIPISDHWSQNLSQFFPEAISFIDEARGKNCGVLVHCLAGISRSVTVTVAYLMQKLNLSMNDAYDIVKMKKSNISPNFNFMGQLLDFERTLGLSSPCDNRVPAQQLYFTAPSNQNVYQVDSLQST

IC50 [µM] | SMILES
41.2 | COc1ccc(Cn2c(C)nc3c(c2=O)c2nc4ccccc4nc2n3Cc2ccco2)cc1 [MLS000079944]
> 50 | Cc1ccc2c(c1C)NC(C(=O)O)C1CC=CC21 (stereo not given)
> 50 | CC(C)Cn1c(N)c(C(=O)COC(=O)c2cc(-c3ccco3)nc3ccccc23)c(=O)n(C)c1=O [2-(2-furanyl)-4-quinolinecarboxylic acid [2-[4-amino-1-methyl-3-(2-methylpropyl)-2,6-dioxo-5-pyrimidinyl]-2-oxoethyl] ester]
> 50 | CCCCC[C@H](O)C=C[C@H]1C=CC(=O)[C@@H]1C/C=C\CCCC(=O)O [(Z)-7-[(1R,5S)-2-oxidanylidene-5-[(E,3S)-3-oxidanyloct-1-enyl]cyclopent-3-en-1-yl]hept-5-enoic acid]

SMILES | IC50 [µM]
CCn1nc(-c2ccccc2)nc2c(=O)n(C)c(=O)nc1-2 [1-Ethyl-6-methyl-3-phenyl-1H-pyrimido[5,4-e][1,2,4]triazine-5,7-dione] | 0.159
